The values that follow come from US9657046B2, “Methods for the treatment and prevention of inflammatory diseases” (Children's Medical Center Corporation, priority 2010, dated 2017).

Assay [1] concerns OVA-sensitized BALB/c mice. Kind of assay: Adoptive transfer of NKT cells from glycolipid-treated mice into OVA-sensitized BALB/c recipients (AHR, BAL). Type of assay: in vivo, mouse. The note with it: OVA-sensitized WT recipients; for AHR in recipients of NKT cells from glycolipid-treated donors: donors treated i.p. at 2 wk (α-C-GalCer 5 μg, PI57 50 μg, or α-GalCer), NKT cells harvested 6 wks later.

The test system of the next assay is BALB/c mice. Kind of assay: OVA-induced AHR in adult mice treated with glycolipid at 2 weeks of age. The class given is in vivo, mouse. The note with it: 2 wk old mice treated i.p. (α-C-GalCer 5 μg, α-GalCer 2 μg, PI57 50 or 100 μg, PBS30 50 μg); AHR induced 6 wks (42 days) later. Here is the method:
In FIGS. 6A-6B, two-week-old BALB/c mice (n=6-8/group) (6A) or Tbet^−/− mice (6B) (n=4-6 per group) received 5 μg […] (cGal), 2 μg α-GalCer, or vehicle. After OVA sensitization and challenge, AHR was measured on day 44. In FIG. 6C, donor mice were treated with α-C-GalCer (5 μg) or vehicle i.p. NKT cells served as donors, as in FIG. 4A (n=4 per group). Lung resistance (left) and cell counts in BAL (right) were assessed. […] In FIG. 6E, mice received PI57 (50 μg), α-GalCer (2 μg), or vehicle i.p., and lungs were examined 1 or 14 days later for CD4 and CD8 expression. In FIG. 6F, absolute numbers of CD4^+ NKT and DN NKT subsets from 6E were assessed. In FIG. 6G, BALB/c mice (n=5-8/group) received PI57 or vehicle i.p. Lung resistance (left) and BAL cells (right) were assessed. In FIG. 6H, BALB/c mice treated with PI57 (50 μg), PBS30 (Sphingomonas glycolipid) (50 μg), or vehicle i.p. were assessed for AHR as in 6G. In FIG. 6I, donor mice were treated with PI57 (50 μg) or vehicle i.p. NKT cells served as donors as in FIG. 4A. Lung resistance (left) and BAL cells (right) were assessed (n=4 per group). […] Data represent 2-3 independent experiments. *P<0.05, #P<0.05, ***P<0.001 versus vehicle-OVA (6C, 6G, and 6I), DN NKT saline (6F), and CD4^+ NKT saline (6F).
Induction of AHR and measurement of airway responsiveness in the OVA model.
To induce AHR, BALB/c mice were sensitized with 100 μg of OVA (Sigma-Aldrich) in alum administered i.p (on day 0). After sensitization, mice were exposed to intranasal antigen (50 μg OVA/day) or normal saline for 1 day (day 7; single dose challenge protocol), or for 3 consecutive days (days 7, 8, 9). AHR was assessed on the day after last OVA-challenge. Control mice received i.p. injection of PBS and intranasal administrations of normal saline.

For another assay, the system named is pulmonary NKT cells. Kind of assay: Lung NKT cell subsets (CD4+, DN) by FACS after i.p. glycolipid in 2 week-old mice. Type of assay: in vivo, mouse. The note with it: i.p. PI57 50 μg or α-GalCer 2 μg, lung 2 wks later. How it is done: In FIGS. 6A-6B, two-week-old BALB/c mice (n=6-8/group) (6A) or Tbet^−/− mice (6B) (n=4-6 per group) received 5 μg […] (cGal), 2 μg α-GalCer, or vehicle. After OVA sensitization and challenge, AHR was measured on day 44. In FIG. 6C, donor mice were treated with α-C-GalCer (5 μg) or vehicle i.p. NKT cells served as donors, as in FIG. 4A (n=4 per group). Lung resistance (left) and cell counts in BAL (right) were assessed. […] In FIG. 6E, mice received PI57 (50 μg), α-GalCer (2 μg), or vehicle i.p., and lungs were examined 1 or 14 days later for CD4 and CD8 expression. In FIG. 6F, absolute numbers of CD4^+ NKT and DN NKT subsets from 6E were assessed. In FIG. 6G, BALB/c mice (n=5-8/group) received PI57 or vehicle i.p. Lung resistance (left) and BAL cells (right) were assessed. In FIG. 6H, BALB/c mice treated with PI57 (50 μg), PBS30 (Sphingomonas glycolipid) (50 μg), or vehicle i.p. were assessed for AHR as in 6G. In FIG. 6I, donor mice were treated with PI57 (50 μg) or vehicle i.p. NKT cells served as donors as in FIG. 4A. Lung resistance (left) and BAL cells (right) were assessed (n=4 per group). […]
Cells were preincubated with anti-Fey blocking mAb (2.4G2) and washed before staining. […] Cells were analyzed on a BDCanto flow cytometer (BD Biosciences) using FlowJo 8.3.3 software (Tree Star, Inc.).
(A flow cytometer gives signals particle by particle.)

Another assay relates to NKT cells. The note with it: cited from earlier work.

As to `CCCCCCCCCCCCCCCCCCCCCCCCCC(=O)N[C@@H](CO[C@H]1O[C@H](CO)[C@H](O)[C@H](O)[C@H]1O)[C@H](O)[C@H](O)CCCCCCCCCCCCCC` [α-GalCer, α-Galactosylceramide], the “AHR in recipients of NKT cells from glycolipid-treated donors” value in assay [1] is listed as “reduced AHR slightly, but this was not statistically significant”. Moreover, the “protection against development of OVA-induced AHR (lung resistance)” value with BALB/c mice is reported as “did not prevent OVA induced AHR”. For the same compound, in the assay on pulmonary NKT cells, the “number of NKT cells (CD4+ and DN subsets) in the lung” value was “increased both CD4^+ and DN NKT cells in the lungs”. In the assay with NKT cells, the “cytokine synthesis induced (IFN-γ, IL-4)” value was “induces production of both IFN-γ and IL-4”.

Regarding `CCCCCCCCCCCCCCCCCCCCCCCCCC(=O)N[C@@H](CC[C@H]1OC(CO)[C@H](O)C(O)C1O)[C@H](O)[C@H](O)CCCCCCCCCCCCCC` (stereo partly drawn) [α-C-GalCer, α-C-Galactosylceramide], the “airway inflammation (BAL cells, lung sections) in recipients of NKT cells from glycolipid-treated donors” value in assay [1] (donors treated i.p. at 2 wk (α-C-GalCer 5 μg, PI57 50 μg)) was “protected recipients against the development of AHR and airway inflammation”. Also, the “AHR in recipients of NKT cells from glycolipid-treated donors” value in assay [1] is listed as “protected recipients against the development of AHR”. Also, the “protection against development of OVA-induced AHR (lung resistance)” value with BALB/c mice is “protected the mice as adults (42 days later) from the development of OVA-induced AHR”. For the same compound, in the assay with NKT cells, the “cytokine synthesis induced (IFN-γ, IL-4)” value is “preferentially induces IFN-γ but not IL-4 synthesis”.
